# Reference: patent US11246929B2, “Combination of a protein kinase inhibitor and an additional chemotherapeutic agent” (Merck Patent GmbH, priority 2016, dated 2022)
# System: MO59K (DNA-PK wild type)
# Assay: AlamarBlue viability assay
# Type: cell-based, human
# Conditions: compound incubation for 72 h
# Method: Details of the assay protocol and material utilized are set forth below.
# After 24 h incubation at 37° C.
# At the end of the compound incubation period 20 μl AlamarBlue reagent was added per well and the 96-well plates were incubated further up to seven hours. Absorption was determined at 540 nm by using Tecan Reader Connect and Magelan 7.
# 0% effect=cells treated with DMSO; −100% effect=no cells
structure (smiles),measurement,value
"[2H]c1nc(C)nc([2H])c1-c1cc(NC[C@@H](C)c2cccc3c(C(N)=O)ccnc23)ncn1 [VX984, 8-[(1S)-2-[[6-(4,6-dideuterio-2-methylpyrimidin-5-yl)pyrimidin-4-yl]amino]-1-methylethyl]quinoline-4-carboxamide]","potentiation of etoposide, Compound 1 in comparison to VX-984",requires higher concentrations of etoposide to arrive at the same % effect
